# “And” between values parts separate entries of the source, which are not always exact repeats. Equal values may be shown once.
# Columns and labels:
# [1] = tested on: 6-OHDA lesion of the SNpc; experiment: Parkinson's disease in vivo: 6-OHDA model; set-up: species or system mouse; conditions: 6-OHDA lesioned mice, dose not given; for Behaviour (Rotation) % SSV: SSV = 0%
# Experimental: Parkinson's Disease In Vivo Technique: 6-OHDA Model
# Preparation of the toxin 6-OHDA (1.65 mg/mL, Sigma Cat# H-4381):
# 6-OHDA toxin is dissolved in ascorbic acid solution (0.2 mg/mL in dH2O), store in dark on ice. To increase the speed of anaesthesia and reduce stress to the mouse, there is premedication with atropine (0.5 mg/kg) and xylazine (10 mg/kg) is injected subcutaneously via a 27 gauge needle).
# To Prepare the Lesion Needle to Inject 6-OHDA:
# PBS is sucked up into the line (ensure no air bubbles) with up to […] in a Hamilton syringe. Syringe is placed the in the Kd Scientific syringe pump and secured. Pump is turned the on and syringe is loaded into the pump. Pump volume is set at […] and the rate is set at 0.5 ml/min. The lesion needle is positioned so that the bevelled (eye) of the needle is at a 45° angle from the midline and tightened to secure the needle. Pump is run and checked for fluid coming out.
# 3-4% isoflurane is carried by oxygen to induce anaesthesia and 1-2% for maintenance of anaesthesia. Animal is placed in small induction chamber and subjected to a few minutes of 4% isoflurane in oxygen at a flow rate of approx 1 l/min. Mouse is then placed in stereotaxic frame. The anaesthetic tube is disconnected from induction box and isoflurane reduced to 2% conc and oxygen flow rate to approx […]. Tube is connected to the nose piece attached to stereotaxic frame so that anaesthetic gas can be constantly administered during surgery. LHS ear bar is screwed at approx 3 mm. RHS ear bar is screwed in until there is no sideways head movement (about 5 mm). Front incisors are placed over the mouthguard and put nose-guard on (3 mm below 0). Mouthguard is screwed into place and ensured the top of the mouse's head is level (re-check this once the animal's skull is exposed).
# Using a scalpel (size 4, blade 22), the scalp is cut down the centreline of the mouse's head to expose the skull. Typically 10-15 mm. The surface of the skull is dried with a cotton bud. Drill hole is measured with a ruler 3 mm posterior from Bregma and between 1 and 1.5 mm laterally from the centre line. The skull is drilled into this position until the surface of the brain is exposed.
# 6-OHDA is sucked up to fill approximately 15 cm of the line and the syringe. Fluid is ensured to be coming out of needle. The bevelled of the needle is aligned over the centreline where Bregma crosses, viewed by Motik dissecting microscope. The needle is ensured to be a few mm above the skull before positioning. Frame is moved 2.9 mm in a posterior direction and 1.1 mm (11 small notches) laterally to the right (for RHS injections) from the starting coordinates at Bregma. Needle is moved down until the tip of the needle just touches the surface of the brain.
# Needle is lowered to the required depth of 4.6 mm and brain is allowed to settle for 2 min.
# […] of toxin is injected into the RHS SNpc, taking 4 min. 2 min is allowed to ensure the toxin disperses. Needle is withdrawn and antiseptic applied to the wound, with suture or superglue to close.
# Mouse is wrapped in a piece of tissue and placed in a warm recovery box (on a heat pad) with water bottles (50 ml tubes) warmed to 50 C. Panadol® syrup is added to mouse's water bottle.
# Rotation is recorded by the Computer based Rotacount system—(Columbus Instruments, Columbus, Ohio, USA). The system comprised of 8 bowls with sensors connected to a computer which measures incremental turns (90 degrees and full turns 360 degrees) either clockwise or counter clockwise. The sensors are positioned above the centre of each bowl about 30 cm above each. Tubing and a thin empty plastic pipette are attached so that the sensor is now extended to with a few cm of the base of the bowl.
# Mice are placed individually into the eight bowls. Mice are secured to the pipettes via a cable tie and tape. […]
# [2] = tested on: MPTP induced cell death in the SN; experiment: Parkinson's disease in vivo: MPTP model; set-up: species or system mouse; conditions: MPTP mice
# CYP2E1 = CYP2E1 (Homo sapiens, UniProt P05181); conditions: read-out: Literature IC50 value, CYP2E1; Chlorzoxazone-6-hydroxylation; positive control inhibitor; unit inferred; cited from earlier work
# CYP2E1, sequence (P05181 whole entry): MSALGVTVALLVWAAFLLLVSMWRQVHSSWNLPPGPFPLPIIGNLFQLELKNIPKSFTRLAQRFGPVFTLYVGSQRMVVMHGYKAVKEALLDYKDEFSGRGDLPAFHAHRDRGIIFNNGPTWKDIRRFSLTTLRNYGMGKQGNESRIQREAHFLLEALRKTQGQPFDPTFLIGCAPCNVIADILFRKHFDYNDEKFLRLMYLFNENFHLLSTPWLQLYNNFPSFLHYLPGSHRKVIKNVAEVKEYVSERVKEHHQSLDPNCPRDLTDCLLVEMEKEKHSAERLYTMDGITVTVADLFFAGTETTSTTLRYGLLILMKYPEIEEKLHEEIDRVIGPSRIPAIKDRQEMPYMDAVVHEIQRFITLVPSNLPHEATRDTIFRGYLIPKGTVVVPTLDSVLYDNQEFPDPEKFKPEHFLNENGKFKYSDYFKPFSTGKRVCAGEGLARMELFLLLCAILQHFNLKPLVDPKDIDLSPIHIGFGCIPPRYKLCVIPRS
SMILES,Behaviour (Rotation) % SSV [1] [%],Behaviour (Rotation) total turns/h ± SD [1],SN cell counts % of SSV (SSV = 0%) [1] [%],SN cell counts (cells ± SD) [1],"Behaviour Pole Test, % (SSV = 0%) ([2]; L-DOPA 20 mg/kg) [%]","Behaviour Pole Test, value ± SD ([2]; L-DOPA 20 mg/kg)",SN cell counts % of SSV ([2]; L-DOPA 20 mg/kg),SN cell counts (cells +/− SD) ([2]; L-DOPA 20 mg/kg),IC50 (CYP2E1) [µM],"Behaviour Pole Test, % (SSV = 0%) ([2]; Selegiline 1 mg/kg) [%]","Behaviour Pole Test, value ± SD ([2]; Selegiline 1 mg/kg)",SN cell counts % of SSV ([2]; Selegiline 1 mg/kg) [%],SN cell counts (cells +/− SD) ([2]; Selegiline 1 mg/kg)
"N[C@@H](Cc1ccc(O)c(O)c1)C(=O)O [L-DOPA, L-3,4-dihydroxyphenylalanine]",52.26,(123.67 ± 80.90) turns/h,1.73,(1953.78 ± 280.21) cells,−205.29,(8.91 ± 5.25),10.39% and 4.50%,1935 ± 296 cells and 2015.91 ± 729.87 cells,,,,,
N[C@@H]1C[C@H]1c1ccccc1 (racemic) [Tranylcypromine],,,,,,,,,8.94,,,,
"C#CCN(C)[C@H](C)Cc1ccccc1 [Selegiline, reference compound]",71.13,(74.80 ± 57.95) turns/h,0.43,(1928.89 ± 301.77) cells,,,,,,−198.93,(8.73 ± 7.95),39.2,(2754.62 ± 461.23) cells
